In patent US7868028B2 (priority 2002, dated 2011):
Values joined by “and” are separate entries in the source; they are usually repeats but may differ in a detail not shown here. Equal values may be shown once. Read-outs that look alike come from different tables or passages of the source.

How the values were obtained:
[1] = target: voltage-gated sodium channel; conditions: cited from earlier work
Male Sprague-Dawley rats = conditions: rat, in vivo; note: test concentration or dose not given here
[2] = test system: voltage-gated sodium channel (site 1, [3H]Saxitoxin binding); design: species or system rat; for % inhibition: test concentration or dose not given here

| SMILES | Kd [1] [µM] | Average % MPE 5 minutes (Male Sprague-Dawley rats) | Average % MPE Day 4 (Male Sprague-Dawley rats) [% MPE] | % inhibition [2] [%] | IC50 [2] [µM] | Average % MPE 5 minutes (Male Sprague-Dawley rats; hydrobromide) |
| --- | --- | --- | --- | --- | --- | --- |
| NC1=N[C@H](O)[C@H]2[C@H]3O[C@]4(O)O[C@@H]([C@@H](O)[C@@]2(N1)[C@@H]4O)[C@]3(O)CO [TTX, tetrodotoxin] | 0.003 to 0.005 |  |  |  |  |  |
| Br.N=c1n(Cc2ccc(F)cc2)c2ccccc2n1CC(O)COc1ccccc1 (racemic) [Compound 70] |  | 83 % MPE | 4 | 26 | 97 |  |
| Br.COc1ccc(Cn2c(=N)n(CC(O)COc3ccccc3)c3ccccc32)cc1 (racemic) [Compound 78] |  | 11 % MPE | −4 | 17 | 67 |  |
| Cl.N=c1n(Cc2ccccc2)c2ccccc2n1CC(O)c1ccc(Cl)cc1 (centres unmarked) [Compound 7] |  | 100 % MPE | 32 | 51 | 60 |  |
| CCCCn1c(=N)n(CC(O)COc2ccccc2)c2ccccc21.Cl (racemic) [Compound 8] |  | 100 % MPE |  | 41 | 87 |  |
| Br.N=c1n(Cc2ccccc2)c2ccccc2n1CC(O)COc1ccccc1 (centres unmarked) [Compound 3, 1-benzyl-2-imino-3-(2-hydroxy-3-phenoxypropyl)benzimidazole hydrobromide] |  |  |  | 52 | 21 | 76 % MPE and 100 % MPE |
| Cc1ccc(Cn2c(=N)n(CC(O)c3ccc(Cl)c(Cl)c3)c3ccccc32)cc1.Cl (centres unmarked) [Compound 11] |  | 34 % MPE | 18 | 48 | 155 |  |
| Cl.N=c1n(Cc2ccccc2)c2ccccc2n1CC(O)c1ccc(Cl)c(Cl)c1 (racemic) [Compound 2] |  | 100 % MPE | 1 | 46 | 21 |  |
| CCn1c(=N)n(CC(O)c2ccc(Cl)c(Cl)c2)c2ccccc21.Cl (centres unmarked) [Compound 9] |  | 100 % MPE | 34 | 46 | 89 |  |
| Cl.N=c1n(CCN2CCCCC2)c2ccccc2n1CC(O)COc1ccccc1 (racemic) [Compound 22] |  | 100 % MPE |  | 14 | 210 |  |
| Cl.N=c1n(Cc2ccccc2)c2ccccc2n1CC(O)c1cccs1 (racemic) [Compound 6] |  | 93 % MPE and 80 % MPE and 100 % MPE |  | 52 | 43 |  |
| Cl.N=c1n(Cc2ccccc2)c2ccccc2n1CC(O)COc1ccc(Cl)cc1 (centres unmarked) [Compound 1] |  | 100 % MPE | 3 | 59 | 15 |  |
